Laboratory results from patent publication US20160355530A1, “HEPATITIS C INHIBITORS AND USES THEREOF” (AbbVie Inc., priority 2010, published 2016).
pEC50, pIC50: −log10 of the molar value. Like-named read-outs stand apart in the source and are kept apart here.

What was measured:
[1] = system: HCV 1a-H77-C316Y transient subgenomic replicon in Huh-7 derived cell line; assay: microbe, parasite or virus in culture; format: cell-based, HCV genotype 1a; conditions: for pEC50: Hepatitis C virus, Huh-7, read-out: Transient Replicon 1a H77-C316Y 5% FBS EC50; for Transient Replicon Fold Resistance C316Y/1a: ratio of transient replicon EC50s, C316Y / 1a H77
Summary of the method: (§1)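 Transient format: T7-transcribed replicon RNA lacking Neo, electroporated into Huh-7-derived cells (5×10^3/well), input RNA checked by luciferase at 4 h. Three-fold compound dilution series, 0.5% DMSO, 4 days at 37° C; EC50 from luciferase signal in lysed cells.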

[2] = system: HCV 1a-H77 transient subgenomic replicon in Huh-7 derived cell line; assay: microbe, parasite or virus in culture; format: cell-based, HCV genotype 1a; conditions: Hepatitis C virus, Huh-7; transient replicon, 5% FBS; read-out: Transient Replicon 1a H77 5% FBS EC50
Summary of the method: as §1

[3] = system: chimeric replicon with genotype 4a NS5B; assay: microbe, parasite or virus in culture; format: cell-based, HCV genotype 4a; conditions: Hepatitis C virus, read-out: 4a chimera 5% FBS EC50
[4] = system: chimeric replicon with 2a-J6CF-derived NS5B; assay: microbe, parasite or virus in culture; format: cell-based, HCV genotype 2a; conditions: Hepatitis C virus, read-out: 2a chimera 5% FBS EC50
[5] = system: HCV 1a-H77 subgenomic replicon; assay: microbe, parasite or virus in culture; format: cell-based, HCV genotype 1a; conditions: Hepatitis C virus, stable replicon
[6] = system: chimeric replicon with genotype 2b NS5B; assay: microbe, parasite or virus in culture; format: cell-based, HCV genotype 2b; conditions: Hepatitis C virus, read-out: 2b chimera 5% FBS EC50
[7] = system: HCV 1b-BB7 subgenomic replicon; assay: microbe, parasite or virus in culture; format: cell-based, HCV genotype 1b; conditions: Hepatitis C virus, stable replicon
[8] = system: chimeric replicon with genotype 3a NS5B; assay: microbe, parasite or virus in culture; format: cell-based, HCV genotype 3a; conditions: Hepatitis C virus, read-out: 3a chimera 5% FBS EC50
[9] = target: T1, HCV NS5B polymerase 1a-H77 (Hepatitis C virus genotype 1a, UniProt P27958); assay: biochemical; set-up: species or system HCV genotype 1a; conditions: enzyme, strain 1a H77; read-out: HCV Polymerase Strain 1a H77 IC50
T1 construct: six-histidine tag; made in house; host or cells: E. coli
Summary of the method: (§2)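 Incorporation of [3H]UTP (0.284 μM), alongside 20 μM each CTP and ATP, into RNA copied from a 5 nM 2.1 kb genotype 1b negative-strand template was measured after 3 h at 30° C using purified His-tagged NS5B truncated at residue 570. Product was spermine-precipitated, filtered and scintillation-counted; nonlinear regression gave IC50.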

[10] = target: T2, HCV NS5B polymerase 1a-H77-C316Y (Hepatitis C virus genotype 1a, UniProt P27958, C2736Y); assay: biochemical; set-up: species or system HCV genotype 1a
T2 construct: six-histidine tag; made in house; host or cells: E. coli
Summary of the method: as §2

[11] = system: HCV NS5B polymerase 1a-H77-C316Y; assay: biochemical; set-up: species or system HCV genotype 1a; conditions: ratio of enzyme IC50s, 1a H77-C316Y / 1a H77
Summary of the method: as §2

[12] = target: T3, HCV NS5B polymerase 1b BK strain (Hepatitis C virus genotype 1b, UniProt P26663); assay: HCV NS5B polymerase enzymatic inhibition assay, strain 1b BK; format: biochemical; conditions: enzyme, strain 1b BK; read-out: HCV Polymerase Strain 1b BK IC50
T3 construct: six-histidine tag; made in house; host or cells: E. coli
Summary of the method: as §2

[13] = 5% FBS, absence of human plasma, read-out: Stable Replicon 1a H77 5% FBS EC50
[14] = strain 1a H77, 5% FBS + 40% human plasma, read-out: 1a H77 5% FBS + 40% Human Plasma EC50
[15] = strain 1a H77, 5% FBS, no human plasma, read-out: 1a H77 5% FBS EC50
[16] = strain 1a H77, 5% FBS, read-out: 1a H77 5% FBS EC50
[17] = strain 1b BB7, 5% FBS + 40% human plasma, read-out: 1b BB7 5% FBS + 40% Human Plasma EC50
[18] = strain 1b BB7, 5% FBS, no human plasma, read-out: 1b BB7 5% FBS EC50
[19] = strain 1b BB7, 5% FBS, read-out: 1b BB7 5% FBS EC50

T3 sequence (P26663 2420-2989): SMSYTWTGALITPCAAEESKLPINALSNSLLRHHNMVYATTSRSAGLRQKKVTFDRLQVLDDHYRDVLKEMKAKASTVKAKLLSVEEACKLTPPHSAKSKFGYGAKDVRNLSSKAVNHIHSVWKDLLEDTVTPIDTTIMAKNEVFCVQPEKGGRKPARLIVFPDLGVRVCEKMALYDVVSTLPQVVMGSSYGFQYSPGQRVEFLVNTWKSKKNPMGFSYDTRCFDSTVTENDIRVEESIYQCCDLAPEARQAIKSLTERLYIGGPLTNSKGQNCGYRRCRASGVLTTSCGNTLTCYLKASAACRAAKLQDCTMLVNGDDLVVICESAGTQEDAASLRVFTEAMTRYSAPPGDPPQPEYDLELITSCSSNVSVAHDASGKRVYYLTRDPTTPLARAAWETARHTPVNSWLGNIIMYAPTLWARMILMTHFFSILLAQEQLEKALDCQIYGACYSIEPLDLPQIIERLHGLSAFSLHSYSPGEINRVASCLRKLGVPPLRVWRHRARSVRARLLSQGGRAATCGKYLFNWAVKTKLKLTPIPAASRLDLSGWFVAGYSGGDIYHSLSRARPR
T1 sequence (P27958 2421-2990): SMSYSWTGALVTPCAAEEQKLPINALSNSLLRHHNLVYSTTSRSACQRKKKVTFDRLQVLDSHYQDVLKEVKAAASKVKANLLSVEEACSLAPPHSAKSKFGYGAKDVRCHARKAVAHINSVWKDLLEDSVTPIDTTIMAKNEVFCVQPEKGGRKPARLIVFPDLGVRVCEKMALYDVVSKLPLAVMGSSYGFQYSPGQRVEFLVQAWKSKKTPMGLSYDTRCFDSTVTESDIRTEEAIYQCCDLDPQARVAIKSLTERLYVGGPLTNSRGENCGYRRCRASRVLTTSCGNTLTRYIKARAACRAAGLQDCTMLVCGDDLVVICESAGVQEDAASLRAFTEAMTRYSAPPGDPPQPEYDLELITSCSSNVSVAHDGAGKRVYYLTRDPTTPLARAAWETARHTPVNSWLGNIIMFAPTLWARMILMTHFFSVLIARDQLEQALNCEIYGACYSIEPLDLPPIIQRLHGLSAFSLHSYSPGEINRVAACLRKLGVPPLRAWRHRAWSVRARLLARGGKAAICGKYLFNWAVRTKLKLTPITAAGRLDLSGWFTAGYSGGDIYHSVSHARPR
T2 sequence (P27958 2421-2990 C2736Y): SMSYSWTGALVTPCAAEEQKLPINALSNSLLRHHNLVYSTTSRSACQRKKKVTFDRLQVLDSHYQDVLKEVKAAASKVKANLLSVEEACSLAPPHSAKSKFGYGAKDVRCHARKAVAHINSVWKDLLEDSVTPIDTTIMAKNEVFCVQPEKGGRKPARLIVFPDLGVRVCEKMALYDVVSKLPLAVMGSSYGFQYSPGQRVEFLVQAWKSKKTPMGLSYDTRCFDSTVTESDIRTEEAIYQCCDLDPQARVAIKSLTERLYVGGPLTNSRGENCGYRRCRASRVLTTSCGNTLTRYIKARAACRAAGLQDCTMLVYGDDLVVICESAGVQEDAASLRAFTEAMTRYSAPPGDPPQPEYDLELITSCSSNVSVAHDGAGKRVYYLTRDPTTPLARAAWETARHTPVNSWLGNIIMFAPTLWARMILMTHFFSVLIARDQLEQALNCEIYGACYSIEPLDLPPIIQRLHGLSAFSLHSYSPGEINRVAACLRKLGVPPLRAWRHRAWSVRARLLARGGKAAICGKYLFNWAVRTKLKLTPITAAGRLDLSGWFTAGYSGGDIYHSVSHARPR

SMILES | pEC50 [1] | Transient Replicon Fold Resistance C316Y/1a [1] | pEC50 [2] | pEC50 [3] | pEC50 [4] | pEC50 [5, 13] | pEC50 [5, 14] | pEC50 [5, 15] | pEC50 [5, 16] | pEC50 [6] | pEC50 [7, 17] | pEC50 [7, 18] | pEC50 [7, 19] | pEC50 [8] | pIC50 [9] | pIC50 [10] | C316Y/1a Fold Resistance [11] | pIC50 [12]
CS(=O)(=O)N(CCCCC(N)=O)c1cc2oc(-c3ccc(F)cc3)c(-c3ncc[nH]3)c2cc1C1CC1 [Example 91, 5-{[5-cyclopropyl-2-(4-fluorophenyl)-3-(1H-imidazol-2-yl)-1-benzofuran-6-yl](methylsulfonyl)amino}pentanamide] | 6.92 | 22 fold | 8.25 | 7.05 | 7.07 | 8.20 | 7.49 | 8.20 | 8.20 | 7.00 | 7.47 | 8.31 | 8.31 | 8.10 | 8.28 | 7.10 | 15 fold | 7.59
CS(=O)(=O)N(CCCCC(=O)O)c1cc2oc(-c3ccc(F)cc3)c(-c3ncc[nH]3)c2cc1C1CC1 [Example 92, 5-{[5-cyclopropyl-2-(4-fluorophenyl)-3-(1H-imidazol-2-yl)-1-benzofuran-6-yl](methylsulfonyl)amino}pentanoic acid] | 6.32 | 25 fold | 7.71 | 6.55 | 6.39 | 7.67 | 6.76 | 7.67 | 7.67 | 6.45 | 6.85 | 7.59 | 7.59 | 7.37 | 8.31 | 7.37 | 9 fold | 8.22
CCS(=O)(=O)CCN(c1cc2oc(-c3ccc(F)cc3)c(-c3ncc[nH]3)c2cc1C1CC1)S(C)(=O)=O [Example 96, N-[5-cyclopropyl-2-(4-fluorophenyl)-3-(1H-imidazol-2-yl)-1-benzofuran-6-yl]-N-[2-(ethylsulfonyl)ethyl]methanesulfonamide] | 7.09 | 73 fold | 8.96 | 7.38 | 7.36 | 8.20 | 7.24 | 8.21 | 8.20 | 6.90 | 7.43 | 8.40 | 8.40 | 8.23 | 8.05 | 7.24 | 6 fold | 7.47
CC(C)(O)CCCN(c1cc2oc(-c3ccc(F)cc3)c(-c3ncc[nH]3)c2cc1C1CC1)S(C)(=O)=O [Example 99, N-[5-cyclopropyl-2-(4-fluorophenyl)-3-(1H-imidazol-2-yl)-1-benzofuran-6-yl]-N-(4-hydroxy-4-methylpentyl)methanesulfonamide] | 7.07 | 11 fold | 8.12 | 7.50 | 7.53 | 8.11 | 6.90 | 8.11 | 8.11 | 7.76 | 6.98 | 8.27 | 8.27 | 8.42 | 8.35 | 7.24 | 13 fold | 7.96
CC(O)CCCN(c1cc2oc(-c3ccc(F)cc3)c(-c3ncc[nH]3)c2cc1C1CC1)S(C)(=O)=O (stereo not drawn) [Example 100, N-[5-cyclopropyl-2-(4-fluorophenyl)-3-(1H-imidazol-2-yl)-1-benzofuran-6-yl]-N-(4-hydroxypentyl)methanesulfonamide] | 7.05 | 21 fold | 8.38 | 7.67 | 7.70 | 8.22 | 7.06 | 8.22 | 8.22 | 7.79 | 7.24 | 8.47 | 8.47 | 8.51 | 8.46 | 7.28 | 15 fold | 8.10
CS(=O)(=O)CCCN(c1cc2oc(-c3ccc(F)cc3)c(-c3ncc[nH]3)c2cc1C1CC1)S(C)(=O)=O [Example 101, N-[5-cyclopropyl-2-(4-fluorophenyl)-3-(1H-imidazol-2-yl)-1-benzofuran-6-yl]-N-[3-(methylsulfonyl)propyl]methanesulfonamide] | 6.99 | 28 fold | 8.43 | 7.25 | 7.48 | 8.39 | 6.96 | 8.39 | 8.39 | 7.48 | 7.12 | 8.23 | 8.23 | 8.37 | 8.30 | 7.34 | 9 fold | 7.96
CS(=O)(=O)N(CCCC(N)=O)c1cc2oc(-c3ccc(F)cc3)c(-c3ncc[nH]3)c2cc1C1CC1 [Example 108, 4-{[5-cyclopropyl-2-(4-fluorophenyl)-3-(1H-imidazol-2-yl)-1-benzofuran-6-yl](methylsulfonyl)amino}butanamide] | 6.69 | 26 fold | 8.10 | 6.98 | 6.81 | 7.82 | 7.31 | 7.82 | 7.82 | 6.73 | 7.24 | 8.00 | 8.00 | 7.96 | 8.46 | 7.22 | 17 fold | 7.55
CS(=O)(=O)N(CCCN1CCS(=O)(=O)CC1)c1cc2oc(-c3ccc(F)cc3)c(C3=NOCCN3)c2cc1C1CC1 [Example 114, N-[5-cyclopropyl-3-(5,6-dihydro-4H-1,2,4-oxadiazin-3-yl)-2-(4-fluorophenyl)-1-benzofuran-6-yl]-N-[3-(1,1-dioxidothiomorpholin-4-yl)propyl]methanesulfonamide] | 6.62 | 11 fold | 7.66 | 6.51 | 6.52 | 7.57 | 6.39 | 7.57 | 7.57 | 6.48 | 6.42 | 7.48 | 7.48 | 7.25 | 8.15 | 7.15 | 10 fold | 7.37
CC(C)(C#N)CCCCN(c1cc2oc(-c3ccc(F)cc3)c(C3=NOCCN3)c2cc1C1CC1)S(C)(=O)=O [Example 115, N-(5-cyano-5-methylhexyl)-N-[5-cyclopropyl-3-(5,6-dihydro-4H-1,2,4-oxadiazin-3-yl)-2-(4-fluorophenyl)-1-benzofuran-6-yl]methanesulfonamide] | 7.04 | 12 fold | 8.14 | 6.91 | 6.78 | 8.02 | 7.42 | 8.02 | 8.02 | 6.84 | 6.90 | 7.85 | 7.85 | 7.52 | 8.41 | 7.43 | 10 fold | 7.48
